According to PMC10222120, “Inhibition Studies on Human and Mycobacterial Carbonic Anhydrases with N-((4-Sulfamoylphenyl)carbamothioyl) Amides” (Molecules, 2023):

Assays:
Experiment in all cases: stopped-flow CO2 hydrase assay
Type in all cases: biochemical
[1] = biological target: T1, hCA II (Homo sapiens, UniProt P00918); settings: read-out: KI (nM) ^a / hCA II (α-CA)
T1 construct: gene CA2; recombinant, obtained in-house; cytosolic alpha-CA
Text: stopped-flow CO2 hydrase assay on hCA II

[2] = biological target: T2, hCA I (Homo sapiens, UniProt P00915); settings: read-out: KI (nM) ^a / hCA I (α-CA)
T2 construct: gene CA1; recombinant, obtained in-house; cytosolic alpha-CA
Text: stopped-flow CO2 hydrase assay on hCA I

[3] = biological target: MtCA2 (Mycobacterium tuberculosis, UniProt P9WPJ9); settings: read-out: KI (nM) ^a / MtCA2 (β-CA)
[4] = biological target: MtCA1 (Mycobacterium tuberculosis, UniProt P9WPJ7); settings: read-out: KI (nM) ^a / MtCA1 (β-CA)
[5] = biological target: T3, MtCA3 (Mycobacterium tuberculosis, UniProt P96878); settings: CO2 […]; […] TRIS pH […]; […] Na2SO4; […] h preincubation at room temperature; read-out: KI (nM) ^a / MtCA3 (β-CA)
T3 construct: gene Rv3273
Text: stopped-flow CO2 hydrase assay on MtCA3

[6] = biological target: T4, hCA VII (Homo sapiens, UniProt P43166); settings: read-out: KI (nM) ^a / hCA VII (α-CA)
T4 construct: gene CA7; recombinant, obtained in-house; cytosolic alpha-CA
Text: stopped-flow CO2 hydrase assay on hCA VII

MtCA2, sequence (P9WPJ9 whole entry, looked up): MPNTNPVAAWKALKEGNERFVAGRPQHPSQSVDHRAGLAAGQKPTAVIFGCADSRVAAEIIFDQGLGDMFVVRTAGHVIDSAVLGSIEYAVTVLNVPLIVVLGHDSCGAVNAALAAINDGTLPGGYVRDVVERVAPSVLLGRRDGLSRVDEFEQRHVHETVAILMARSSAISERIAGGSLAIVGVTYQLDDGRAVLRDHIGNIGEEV
T4 sequence (P43166 whole entry): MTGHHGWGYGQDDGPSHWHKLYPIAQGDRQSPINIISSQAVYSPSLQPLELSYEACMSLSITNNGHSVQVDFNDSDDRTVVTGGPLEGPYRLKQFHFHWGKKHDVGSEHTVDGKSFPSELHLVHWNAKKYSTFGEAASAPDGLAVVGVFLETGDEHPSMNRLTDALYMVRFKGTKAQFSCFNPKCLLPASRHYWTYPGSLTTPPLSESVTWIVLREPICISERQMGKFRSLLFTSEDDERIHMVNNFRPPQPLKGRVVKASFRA
MtCA1, sequence (P9WPJ7 2-163): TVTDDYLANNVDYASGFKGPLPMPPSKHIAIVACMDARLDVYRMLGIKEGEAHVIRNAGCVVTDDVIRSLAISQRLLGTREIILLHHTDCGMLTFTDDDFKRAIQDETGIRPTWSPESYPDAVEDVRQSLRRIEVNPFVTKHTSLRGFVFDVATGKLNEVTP
T2 sequence (P00915 2-261): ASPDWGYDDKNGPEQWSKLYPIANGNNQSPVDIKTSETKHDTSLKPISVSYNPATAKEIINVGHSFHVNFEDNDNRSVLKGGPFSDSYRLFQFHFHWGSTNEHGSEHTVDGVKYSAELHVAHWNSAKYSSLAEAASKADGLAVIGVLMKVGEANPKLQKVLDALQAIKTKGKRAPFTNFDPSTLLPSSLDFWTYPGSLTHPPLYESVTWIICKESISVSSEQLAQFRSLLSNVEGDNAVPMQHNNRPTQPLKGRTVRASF
T3 sequence (P96878 555-764 limits assumed): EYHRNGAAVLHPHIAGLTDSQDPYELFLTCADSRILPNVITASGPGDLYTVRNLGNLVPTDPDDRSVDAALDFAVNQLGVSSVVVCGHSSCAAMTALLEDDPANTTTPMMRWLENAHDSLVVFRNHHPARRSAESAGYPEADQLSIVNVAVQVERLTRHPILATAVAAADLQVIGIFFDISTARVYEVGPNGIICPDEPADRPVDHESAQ

**Q.** Which Ki [1] does the source give for `CC(=O)NC(=S)Nc1ccc(S(N)(=O)=O)cc1` [3a, N-((4-Sulfamoylphenyl)carbamothioyl)acetamide] here?
**A.** 78.7 nM

**Q.** And the Ki [2]?
**A.** 85.2 nM

**Q.** What about the Ki [3] of the same molecule?
**A.** 4.4 nM

**Q.** What about the Ki [4] of the same molecule?
**A.** 897 nM

**Q.** And the Ki [5]?
**A.** 610 nM

**Q.** And the Ki [6]?
**A.** 13.5 nM

**Q.** With `CCC(=O)NC(=S)Nc1ccc(S(N)(=O)=O)cc1` [3b, N-((4-Sulfamoylphenyl)carbamothioyl)propionamide] as the molecule, how does the Ki [1] read?
**A.** 35.9 nM

**Q.** And the Ki [2]?
**A.** 58.3 nM

**Q.** And the Ki [3]?
**A.** 5.4 nM

**Q.** And the Ki [4]?
**A.** 252 nM

**Q.** And the Ki [5]?
**A.** 806 nM

**Q.** And the Ki [6]?
**A.** 2.8 nM

**Q.** What does the source list for `CCCC(=O)NC(=S)Nc1ccc(S(N)(=O)=O)cc1` [3c, N-((4-Sulfamoylphenyl)carbamothioyl)butyramide]?
**A.** Ki [1]: 7.7 nM; Ki [2]: 50.3 nM; Ki [3]: 7.6 nM; Ki [4]: 784 nM; Ki [5]: 9400 nM; Ki [6]: 3 nM

**Q.** Which results are given for `NS(=O)(=O)c1ccc(NC(=S)NC(=O)C2CC2)cc1` [3d, N-((4-Sulfamoylphenyl)carbamothioyl)cyclopropanecarboxamide]?
**A.** Ki [1]: 384 nM; Ki [2]: 87.4 nM; Ki [3]: 4.2 nM; Ki [4]: 95.2 nM; Ki [5]: 6280 nM; Ki [6]: 1.9 nM

**Q.** Which Ki [1] does the source give for `CC(C)C(=O)NC(=S)Nc1ccc(S(N)(=O)=O)cc1` [3e, N-((4-sulfamoylphenyl)carbamothioyl)isobutyramide] here?
**A.** 8.9 nM

**Q.** What about the Ki [2] of the same molecule?
**A.** 72.7 nM

**Q.** What about the Ki [3] of the same molecule?
**A.** 57.1 nM

**Q.** What about the Ki [4] of the same molecule?
**A.** 369 nM

**Q.** And the Ki [5]?
**A.** 3670 nM

**Q.** And the Ki [6]?
**A.** 1.1 nM

**Q.** With `CC(C)CC(=O)NC(=S)Nc1ccc(S(N)(=O)=O)cc1` [3f, 3-methyl-N-((4-sulfamoylphenyl)carbamothioyl)butanamide] as the molecule, how does the Ki [1] read?
**A.** 5.3 nM

**Q.** What about the Ki [2] of the same molecule?
**A.** 36.4 nM

**Q.** What about the Ki [3] of the same molecule?
**A.** 21.1 nM

**Q.** What about the Ki [4] of the same molecule?
**A.** 782 nM

**Q.** And the Ki [5]?
**A.** 8390 nM

**Q.** And the Ki [6]?
**A.** 2.1 nM

**Q.** Which Ki [1] does the source give for `CCCCCC(=O)NC(=S)Nc1ccc(S(N)(=O)=O)cc1` [3g, N-((4-sulfamoylphenyl)carbamothioyl)hexanamide] here?
**A.** 46.5 nM

**Q.** What about the Ki [2] of the same molecule?
**A.** 13.3 nM

**Q.** And the Ki [3]?
**A.** 3.4 nM

**Q.** And the Ki [4]?
**A.** 3510 nM

**Q.** What about the Ki [5] of the same molecule?
**A.** 719 nM

**Q.** And the Ki [6]?
**A.** 3.2 nM

**Q.** `NS(=O)(=O)c1ccc(NC(=S)NC(=O)C2CCCCC2)cc1` [3h, N-((4-Sulfamoylphenyl)carbamothioyl)cyclohexanecarboxamide] was tested. Which Ki [1] did it give?
**A.** 21.7 nM

**Q.** And the Ki [2]?
**A.** 67.8 nM

**Q.** And the Ki [3]?
**A.** 8.4 nM

**Q.** What about the Ki [4] of the same molecule?
**A.** 6670 nM

**Q.** What about the Ki [5] of the same molecule?
**A.** 7140 nM

**Q.** And the Ki [6]?
**A.** 2.2 nM

**Q.** How did the Ki [1] turn out when `NS(=O)(=O)c1ccc(NC(=S)NC(=O)Cc2cccc3ccccc23)cc1` [3i, 2-(Naphthalen-1-yl)-N-((4-sulfamoylphenyl)carbamothioyl)acetamide] was run?
**A.** 9.7 nM

**Q.** What about the Ki [2] of the same molecule?
**A.** 60.5 nM

**Q.** What about the Ki [3] of the same molecule?
**A.** 4.6 nM

**Q.** And the Ki [4]?
**A.** 962 nM

**Q.** What about the Ki [5] of the same molecule?
**A.** 2130 nM

**Q.** And the Ki [6]?
**A.** 2.6 nM

**Q.** `C/C=C/C(=O)NC(=S)Nc1ccc(S(N)(=O)=O)cc1` [3j, N-((4-Sulfamoylphenyl)carbamothioyl)but-2-enamide] was tested. Which Ki [1] did it give?
**A.** 64.6 nM

**Q.** What about the Ki [2] of the same molecule?
**A.** 69.4 nM

**Q.** And the Ki [3]?
**A.** 9.2 nM

**Q.** And the Ki [4]?
**A.** 2420 nM

**Q.** And the Ki [5]?
**A.** 851 nM

**Q.** What about the Ki [6] of the same molecule?
**A.** 10.3 nM

**Q.** What does the source list for `NS(=O)(=O)c1ccc(NC(=S)NC(=O)/C=C/c2ccccc2)cc1` [3k, N-((4-Sulfamoylphenyl)carbamothioyl)cinnamamide]?
**A.** Ki [1]: 9.2 nM; Ki [2]: 47.9 nM; Ki [3]: 8.1 nM; Ki [4]: 224 nM; Ki [5]: 447 nM; Ki [6]: 3.1 nM

**Q.** How did the Ki [1] turn out when `NS(=O)(=O)c1ccc(NC(=S)NC(=O)c2ccc([N+](=O)[O-])cc2)cc1` [3l, 4-nitro-N-((4-sulfamoylphenyl)carbamothioyl)benzamide] was run?
**A.** 6.8 nM

**Q.** And the Ki [2]?
**A.** 87.6 nM

**Q.** What about the Ki [3] of the same molecule?
**A.** 4.8 nM

**Q.** What about the Ki [4] of the same molecule?
**A.** 868 nM

**Q.** And the Ki [5]?
**A.** 5280 nM

**Q.** What about the Ki [6] of the same molecule?
**A.** 2.5 nM
